# Article PMC11784839, “Monoaminergic neurotransmitters are bimodal effectors of tau aggregation” (Science Advances, 2025)
# Target: tau (Homo sapiens, UniProt P10636)
# Assay: MCE Phenols Library screening, tau biosensor cell seeding assay (AvZ)
# Format: cell-based
# Settings: for Z repl 1 / Z Repl 2: Z score; for Z repl 1 / raw data 1: replicate 1; for Z Repl 2 / raw data 2: replicate 2; for AvZ (average z score of seeding, SDs from the mean level of seeding): 10 μM phenol in cell cultures, AD brain homogenate preincubated 16 hours, two biological replicates, positive = catalyzes seeding, negative = inhibits
# [1] = average Z score of the two replicates, MCE Phenols Library screen
# [2] = average puncta of the two replicates
# [3] = average Z score of the two replicates, tau seeding
# [4] = average Z score of two replicates, Phenols Library screen
# Chain of tau (P10636 623-695 limits assumed): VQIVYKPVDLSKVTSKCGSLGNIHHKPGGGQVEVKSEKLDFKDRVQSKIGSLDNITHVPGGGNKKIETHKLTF
Compound,Z repl 1,Z Repl 2,av Z [1],av puncta (average of raw data 1 and 2),raw data 1 (puncta),raw data 2 (puncta),av puncta [2],raw data 1 (raw puncta),raw data 2 (raw puncta),"av Z (average Z score of the two replicates, tau biosensor seeding, MCE Phenols Library screen)",av Z [3],"AvZ (average z score of seeding, SDs from the mean level of seeding)",av Z [4]
Oc1cc(O)c2c(c1)O[C@H](c1cc(O)c(O)c(O)c1)[C@@H](O)C2 [(+)-Gallocatechin],-0.679,-1.082,-0.881,9700.21,18193.2,1207.17,,,,,,,
O=C1c2ccccc2C(=O)c2c(O)c(O)cc(O)c21 [Purpurin],0.055,-0.946,-0.446,,,,14831.1,27004.8,2657.32,,,,
COc1cc([C@@H]2c3cc4c(cc3C[C@H]3COC(=O)[C@@H]32)OCO4)cc(OC)c1OC [Deoxypodophyllotoxin],3.44,3.821,,60606.3,67641.6,53571.1,,,,3.63,,,
COc1ccc(-c2oc3cc(O)cc(O)c3c(=O)c2O)cc1O [Tamarixetin],-0.357,-0.633,-0.495,,22060,6006.83,14033.4,,,,,,
C#C[C@]1(O)CC[C@H]2[C@@H]3CCc4cc(O)ccc4[C@H]3CC[C@@]21C [Ethynyl Estradiol],0.578,0.204,,24116.9,33285.2,14948.5,,,,,0.391,,
O=c1cc(-c2ccc(O)c(-c3c(O)cc(O)c4c(=O)cc(-c5ccc(O)cc5)oc34)c2)oc2cc(O)cc(O)c12 [Amentoflavone],-0.87,-0.309,-0.589,,15910.5,9468.24,12689.4,,,,,,
O=C(O)C=Cc1ccc(O)cc1 [p-Coumaric acid],-0.724,0.15,,,,,16011.2,17659.3,14363.1,,,-0.287,
O=C1c2c(O)cccc2C([C@@H]2O[C@H](CO)[C@@H](O)[C@H](O)[C@H]2O)c2cc(CO)cc(O)c21 (some centres unmarked) [Aloin(mixture of A&B)],-0.336,-0.332,-0.334,,,,15768.9,22314.5,9223.26,,,,
CC(=O)c1c(C)cc2cccc(O)c2c1O [Nepodin],-0.364,0.129,,18059,21978.8,14139.2,,,,,,,-0.118
COc1ccc(-c2cc(=O)c3c(O)c(OC)c(O)c(OC)c3o2)cc1 [Nevadensin],-0.55,-0.108,-0.329,,,,15677.7,19746.6,11608.9,,,,
COc1ccc(C(=O)O)cc1O [Isovanillic acid],0.248,-0.549,,18113.3,29328.9,6897.73,,,,,,-0.151,
Oc1ccc(/C=C/c2cc(O)cc(O)c2)cc1 [Resveratrol],-0.355,-0.816,-0.586,,22084.8,4048.5,13066.7,,,,,,
Echinacoside,0.125,-0.609,-0.242,,,,17056.9,27847.2,6266.63,,,,
COc1cc(O)c2c(=O)cc(-c3ccccc3)oc2c1 [Tectochrysin],0.481,-0.371,,20458.8,32119.1,8798.38,,,,,,,0.055
"O=C(O)c1ccccc1O [Salicylic acid, reference compound]",-1.015,-0.017,,,14164.1,12581.6,13372.8,,,,,-0.516,
O=C1O[C@H]2[C@@H]3OC(=O)c4cc(O)c(O)c(O)c4-c4c(cc(O)c(O)c4O)C(=O)OC[C@H]2O[C@@H](OC(=O)c2cc(O)c(O)c(O)c2)[C@@H]3OC(=O)c2cc(O)c(O)c3c2[C@@H]2C1=CC(=O)[C@](O)(O3)C2(O)O [Geraniin],-2.121,-1.184,-1.653,501.022,880.948,121.096,,,,,,,
Cl.NCC(O)c1ccc(O)cc1 (centres unmarked) [Octopamine (hydrochloride)],-0.187,0.177,,19376.3,24099.8,14652.9,,,,,,-0.005,
COc1ccc(-c2oc3c(CCC(C)(C)O)c(O[C@@H]4O[C@H](CO)[C@@H](O)[C@H](O)[C@H]4O)cc(O)c3c(=O)c2O)cc1 [Maohuoside A],-0.381,-0.64,-0.51,,21773.2,5935.58,13854.4,,,,,,
COc1c(O)cc2occ(-c3ccc(O)cc3)c(=O)c2c1O [Tectorigenin],-0.071,-0.055,,18839.4,25501.8,12177,,,,,,,-0.063
O=C(O)[C@H]1O[C@@H](Oc2cc3oc(-c4ccc(O)cc4)cc(=O)c3c(O)c2O)[C@H](O)[C@@H](O)[C@@H]1O [Scutellarin],-1.927,-0.903,-1.415,3169.77,3217.73,3121.8,,,,,,,
CC(=O)c1ccc(O)c(C)c1 [4'-Hydroxy-3'-methylacetophenone],0.035,-0.259,,18387.5,26771.9,10003.1,,,,,,-0.112,
CC(=O)OC(C)(C)CC(=O)O[C@H](CC=C(C)C)C1=CC(=O)c2c(O)ccc(O)c2C1=O [Beta-Acetoxyisovalerylshikonin],-0.24,0.548,,21041.3,23464.1,18618.6,,,,,0.154,,
O=C1N[C@@H]2C(=C[C@H](O)[C@@H](O)[C@H]2O)c2cc3c(c(O)c21)OCO3 [Narciclasine],-2.127,-0.234,-1.181,5540.49,817.989,10263,,,,,,,
COc1ccc2cc1Oc1ccc(cc1)C[C@H]1c3cc(c(OC)cc3CCN1C)Oc1c(O)c(OC)cc3c1[C@@H](C2)N(C)CC3 [(R)-Fangchinoline],0.226,0.65,,24385.2,29066.8,19703.5,,,,,0.438,,
CCCCCCCCC/C=C/C(=O)CCc1ccc(O)c(OC)c1 [[10]-Shogaol],-0.951,-0.064,,,14936.2,12081.7,13509,,,,,,
